Consider 22 compounds from patent US20100120810A1, “COMPOUNDS AND METHODS FOR MODULATING RHO GTPASES” (priority 2007, published 2010).

What all share (format): biochemical
Assay [1] deals with T1, Cdc42 (Homo sapiens, UniProt P60953).
T1 construct: GST (N); made in house; host or cells: E. coli BL21 Codon+RIL
The assay can be described thus: Nucleotide binding assay: BODIPY-GTP binding to Cdc42. Particulars: read-out: Cdc42 % inhibition of BODIPY-GTP binding. The method, then:
(§1) Fluorescence of GTP analog BODIPY-GTP increases when it binds to small G proteins. This property was used to assess ability of compounds to inhibit nucleotide binding to Rac1, Rac1b and Cdc42. 2 μM GST-Rac1 and 6 μg His6-Tiam1-DH/PH were diluted in a buffer containing 20 mM Tris, 50 mM NaCl, and 1 mM MgCl2. This mixture was loaded in a 96-well plate. Fluorescence recording were started (λEx: 485 nm; λEm: 538 nm) using a spectrofluorimeter (Fluoroskan; Thermolab Systems). Assay was initiated by the addition of 2 μM BODIPY-GTP with or without various doses of test compound. Fluorescence values were recorded, and data were processed as follows: background fluorescence (unbound BODIPY-GTP) was retrieved from fluorescence values.
(§2) This assay allows determining whether compounds can inhibit the binding of a fluorescent nucleotide to recombinant small G proteins of interest. The effect of various alkaloid compounds on binding of BODIPY-GTP to Rac1 activated by DH/PH domain of Guanine nucleotide Exchange Factor Tiam1 (Rac1/Tiam1), Rac1b and Cdc42 is described below.

Assay [2] has as its target T2, Rac1 activated by DH/PH domain of Guanine nucleotide Exchange Factor Tiam1 (Rac1/Tiam1) (Homo sapiens, UniProt P63000).
T2 construct: made in house; host or cells: E. coli BL21 Codon+RIL
The assay can be described thus: Nucleotide binding assay: BODIPY-GTP binding to Rac1 activated by Tiam1 DH/PH. Particulars: for inhibition at 50 µM: read-out: Rac1 % inhibition of BODIPY-GTP binding. On the procedure: as §1, §2

Assay [3] has as its target T3, Rac1b (Homo sapiens, UniProt P63000).
T3 construct: GST (N); made in house; host or cells: E. coli BL21 Codon+RIL
The assay can be described thus: Nucleotide binding assay: BODIPY-GTP binding to Rac1b. Particulars: for inhibition at 50 µM: read-out: Rac1b % inhibition of BODIPY-GTP binding. On the procedure: as §1, §2

Where [4] appears, read: final concentration of 50 μM, Rac1/Tiam1.
The mark [5] stands for this setting: dose-response study (1-2-5-10-25-50-75-100 μM).

Counter-ions that a name gives are not always drawn. Like-named read-outs stand apart in the source and are kept apart here.

T1 sequence (P60953 whole entry, species assumed): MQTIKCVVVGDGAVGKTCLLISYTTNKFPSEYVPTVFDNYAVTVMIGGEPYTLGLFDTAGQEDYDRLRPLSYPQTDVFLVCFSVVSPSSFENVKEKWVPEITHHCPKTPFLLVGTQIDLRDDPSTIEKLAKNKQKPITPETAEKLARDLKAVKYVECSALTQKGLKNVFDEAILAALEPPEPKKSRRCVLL

Turning to `COc1cc2cc(-c3ccc4c(c3)OCO4)nc(C)c2cc1OC` [Compound 21, 3-(Benzo[d][1,3]dioxol-5-yl)-6,7-dimethoxy-1-methylisoquinoline hydrochloride], the figures for the inhibition at 50 µM in assay [1] (final concentration of 50 μM), in assay [2] (setting [4]) and in assay [3] (final concentration of 50 μM) were 18 ± 2%, 13 ± 2% and 12 ± 2%, respectively.
With `COc1cc2c(cc1OC)-c1cc3ccc(OC)c(OC)c3c[n+]1CC2` [Compound 2, palmatine chloride, hydrate, reference compound], the inhibition at 50 µM worked out at 11 ± 2% in assay [1] (final concentration of 50 μM), 15 ± 2% in assay [2] and 19 ± 3% in assay [3].
In the case of `COc1ccc2c(c1OC)C(Cc1ccccc1)N1CCc3cc4c(cc3C1C2)OCO4` (racemic) [Compound 12, (±)-8-Benzyl-9,10-dimethoxy-5,8,13,13a-tetrahydro-6H-[1,3]dioxolo[4,5-g]isoquino[3,2-a]isoquinoline hydrochloride], the inhibition at 50 µM was 9 ± 2% in assay [1] (final concentration of 50 μM), 23 ± 3% in assay [2] (setting [4]) and 31 ± 4% in assay [3] (final concentration of 50 μM).
As to `COc1ccc2c(c1OC)CN1CCc3cc4c(cc3C1C2)OCO4` (racemic) [Compound 3, (±)-Canadine hydrochloride], the values for the inhibition at 50 µM in assay [2] and in assay [3] were 1 ± 3% and -7 ± 4%, respectively.
Take `COc1ccc2c(c1OC)C[N+]1(Cc3ccccc3)CCc3cc4c(cc3C1C2)OCO4` (racemic) [Compound 5, (±)-7-benzyl-9,10-dimethoxy-5,8,13,13a-tetrahydro-6H-[1,3]dioxolo[4,5-g]isoquino[3,2-a]isoquinolinylium bromide]: the inhibition at 50 µM in assay [1] (final concentration of 50 μM) amounted to 3 ± 1%; in assay [2] (setting [4]), 9 ± 2%; in assay [3] (final concentration of 50 μM), 16 ± 2%.
Taken in the same sequence, the figures for `COc1cc2cnc(-c3ccccc3)cc2cc1OC` [Compound 49, 6,7-Dimethoxy-3-phenylisoquinolinium chloride] were 2 ± 6%, 1 ± 5% and 2 ± 4%.
On to `COc1ccc2cc3[n+](cc2c1OC)CCc1cc2c(cc1-3)OCO2` [Compound 1, Berberine chloride, reference compound], for which the results for the inhibition at 50 µM in assay [1] (final concentration of 50 μM), in assay [2] (setting [4]) and in assay [3] (final concentration of 50 μM) were 8 ± 2%, 15 ± 2% and 23 ± 2%, respectively. In addition, the “maximum inhibition on Rac1/Tiam1” value in assay [2] (setting [5]) is 19±1%. The “maximum inhibition on Rac1b” value in assay [3] (setting [5]) was 29±1%.
As to `COc1cc2c(cc1OC)CN(Cc1cccc(OC)c1OC)CC2` [Compound 7, 2-(2,3-Dimethoxybenzyl)-6,7-dimethoxy-1,2,3,4-tetrahydroisoquinoline hydrochloride], the inhibition at 50 µM in assay [1] (final concentration of 50 μM) was -1 ± 1%; in assay [2] (setting [4]), 0%; in assay [3] (final concentration of 50 μM) it was 6 ± 3%.
The matching figures for `COc1cc2cc(-c3cccc([N+](=O)[O-])c3)nc(C)c2cc1OC` [Compound 23, 6,7-Dimethoxy-1-methyl-3-(3-nitrophenyl)isoquinolinium chloride]: 14 ± 3%, 3 ± 4% and 10 ± 4%.
Taken in the same sequence, the figures for `CNC(=O)c1ccc(-c2cc3cc(OC)c(OC)cc3c(C)n2)cc1` [Compound 34, 4-(6,7-Dimethoxy-1-methylisoquinolin-3-yl)-N-methylbenzamide] were 3 ± 5%, -2 ± 3% and 3 ± 3%.
The matching figures for `COc1cc2cc(-c3ccc4c(c3)OCO4)[n+](C)c(C)c2cc1OC` [Compound 22, 3-(Benzo[d][1,3]dioxol-5-yl)-6,7-dimethoxy-1,2-dimethylisoquinolinium chloride]: 14 ± 3%, 12 ± 2% and 18 ± 2%.
As for `COc1ccc(-c2cc3cc(OC)c(OC)cc3c(C)n2)cn1` [Compound 35, 6,7-Dimethoxy-3-(6-methoxypyridin-3-yl)-1-methylisoquinoline dimethanesulfonate], the inhibition at 50 µM in assay [1] (final concentration of 50 μM) was 11 ± 2%; in assay [2] (setting [4]) it was 6 ± 4%; in assay [3] (final concentration of 50 μM) it was 6 ± 2%.
As to `COc1cc2cc(-c3ccc(Cl)c(Cl)c3)nc(C)c2cc1OC` [Compound 39, 3-(3,4-Dichlorophenyl)-6,7-dimethoxy-1-methylisoquinolinylium chloride], the inhibition at 50 µM in assay [1] (final concentration of 50 μM) was determined as 5 ± 1%; in assay [2] (setting [4]), 17 ± 7%; in assay [3] (final concentration of 50 μM) it was 42 ± 7%.
In the case of `COc1cc2cc(-c3ccccc3N)nc(C)c2cc1OC` [Compound 37, 2-(6,7-Dimethoxy-1-methylisoquinolin-3-yl)aniline dihydrochloride], the inhibition at 50 µM is 1 ± 13% in assay [1] (final concentration of 50 μM), 10 ± 1% in assay [2] (setting [4]) and 14 ± 2% in assay [3] (final concentration of 50 μM).
The matching figures for `CCc1cc2c(cc1C1Cc3ccc(OC)c(OC)c3CN1C)OCO2` (racemic) [Compound 20, (±)-3-(6-Ethylbenzo[d][1,3]dioxol-5-yl)-7,8-dimethoxy-2-methyl-1,2,3,4-tetrahydroisoquinolinylium chloride]: 8 ± 3%, 4 ± 4% and -6 ± 10%.
Take `COc1ccc2c(c1OC)CN1CCc3cc(O)c(O)cc3C1C2` (racemic) [Compound 17, (±)-9,10-Dimethoxy-5,8,13,13a-tetrahydro-6H-isoquino[3,2-a]isoquinoline-2,3-diol hydrochloride]: the inhibition at 50 µM was -13 ± 12% in assay [1], 5 ± 3% in assay [2] and -7 ± 4% in assay [3].
Take `COc1ccc2c(c1OC)C(Cc1ccccc1)N1CCc3cc4c(cc3C1=C2)OCO4` (centres unmarked) [Compound 11, 8-benzyl-9,10-dimethoxy-5,8-dihydro-2H-6H-[1,3]dioxolo[4,5-g]isoquino[3,2-a]isoquinoline]: the inhibition at 50 µM was 1 ± 1% in assay [1] (final concentration of 50 μM), -1 ± 2% in assay [2] (setting [4]) and -2 ± 3% in assay [3] (final concentration of 50 μM).
On to `COc1cc2cc(-c3cccc(NC(C)=O)c3)nc(C)c2cc1OC` [Compound 31, N-(3-(6,7-Dimethoxy-1-methylisoquinolin-3-yl)phenyl)acetamide hydrochloride], for which the figures for the inhibition at 50 µM in assay [1] (final concentration of 50 μM), in assay [2] (setting [4]) and in assay [3] (final concentration of 50 μM) were 10 ± 1%, -1 ± 2% and 10 ± 3%, respectively.
With `COc1cc2cc(-c3ccccc3NC(C)=O)nc(C)c2cc1OC` [Compound 38, N-(2-(6,7-Dimethoxy-1-methylisoquinolin-3-yl)phenyl)acetamide], the inhibition at 50 µM was 3 ± 7% in assay [1] (final concentration of 50 μM), 1 ± 3% in assay [2] (setting [4]) and 0% in assay [3] (final concentration of 50 μM).
As to `COc1cc2cc(-c3cccc(C(C)=O)c3)[n+](C)c(C)c2cc1OC` [Compound 25, 3-(3-Acetylphenyl)-6,7-dimethoxy-1,2-dimethylisoquinolinium chloride], the inhibition at 50 µM in assay [1] (final concentration of 50 μM) was found to be 7 ± 1%; in assay [2] (setting [4]), 20 ± 3%; in assay [3] (final concentration of 50 μM), 29 ± 3%.
Take `COc1cc2cc(-c3ccc(C(=O)OC(C)C)cc3)nc(C)c2cc1OC` [Compound 32, Isopropyl 4-(6,7-dimethoxy-1-methylisoquinolin-3-yl)benzoate hydrochloride]: the inhibition at 50 µM in assay [1] (final concentration of 50 μM) came to 2 ± 1%; in assay [2] (setting [4]), 4 ± 5%; in assay [3] (final concentration of 50 μM), 10 ± 4%.
On to `Oc1cc2c(cc1O)-c1cc3ccc(O)c(O)c3c[n+]1CC2` [Compound 6, 5,6-dihydro-isoquino[3,2-a]isoquinolinylium-2,3,9,10-tetraol chloride], for which the inhibition at 50 µM in assay [1] (final concentration of 50 μM) was 100%.

Broadly, the inhibition is the drop in the measured response relative to a control, in per cent.
